# Laboratory results from patent US12280040B2, “Compositions and methods of a dihydroisoxazole compound that reduces ectoparasite infestations on fish” (EVAH Atlantic Inc., priority 2023, dated 2025).
# Experiments:
# Lepeophtheirus salmonis = assay: Efficacy of medicated feed against an existing experimental sea lice infestation on Atlantic salmon post-smolts (Example 1); assay type: in vivo
# Experimental: A randomized, blinded, parallel-group, negative-controlled study was conducted in which, the active ingredient was administered in medicated feed to laboratory-maintained Atlantic salmon (Salmo salar) post-smolts in seawater. Smolts were experimentally infested with sea lice (Lepeophtheirus salmonis) under laboratory conditions prior to being fed the medicated diet to assess the efficacy of the active ingredient in reducing the number of sea lice/fish.
# Healthy Atlantic salmon post-smolts (n=750) were selected for enrollment and distributed sequentially across ten (10) study tanks. Fish were weighed individually during the allocation of fish to tanks on study day (SD)-95, with SD 0 serving as the first day of treatment. Fish were weighed on SD −2, +8, +18, +22, and +30. The fish weights on SD −2 were used to estimate the average weight of all fish and used to determine the feeding amount during the treatment period (SD 0−+6). A target of total of 10 fish/tank were lethally sampled, lice-counted, and weight and length were measured. The mean weight of fish in tanks on SD −2 was 829.9±161.7 g.
# Atlantic salmon post-smolts were infested once with sea lice using an experimental challenge model. About 50 copepodids (Lepeophtheirus salmonis) per fish were added to each tank on SD −17. During the study the water temperature varied between 8 and 12° C. The water oxygen saturation was consistently above 80% throughout the study.
# Five treatment groups were randomly assigned to ten study tanks so that there were 2 tanks per treatment group. Study personnel were blinded as to the identity of the treatments for each tank.
# Sea lice were counted four times during the study. All sampled fish were euthanized and lice counted. The baseline count occurred on SD −2 (with 10 fish per tank), corresponding to ˜160 degree days (15 d) post-infestation. The time was sufficient for lice development to the chalimus stage. Count 1 occurred on SD +8 (with 20 fish per tank) corresponding to ˜260 degree days (25 d) post infestation and 2 days post treatment. The time was sufficient for lice development into chalimus and pre-adult stages in the control tanks. Count 2 occurred on SD +18 (with 20 fish per tank) corresponding to ˜360 degree days (35 d) post infestation and 12 days post treatment. The time was sufficient for lice development into adult males and females in the control tanks. Count 3 occurred on SD +22 (with 20 fish per tank) corresponding to ˜400 degree days (39 d) post infestation and 16 days post treatment. The time was sufficient for lice development into adult males and females with no chalimus stages present in the control tanks.
# Medicated feed was prepared by dry coating commercially available fish feed pellets with a premix containing the active ingredient to reach a content of about 1.6, 4.0. 8.0 and 19.9 mg/kg. The fish pellets were then coated with feed grade herring fish oil at an inclusion rate of about 0.75% w/w (7.5 g/kg feed) The consumption rate of the medicated feed was set to 0.628% body weight.
# Treatment efficacy was computed for total number of sea lice/fish and total number of mobile life stages, i.e., preadult & adult sea lice/fish for each post-treatment sea lice counting occasion. For the total number of attached/fish, treatment efficacy was computed at the first count post-treatment. Percent efficacy was computed using Abbott's formula for each treatment group compared to control as follows:
# [formula] where MC and MT are the arithmetic means of sea lice counts in the untreated control and S-roxapin-treated groups, respectively.
# Treatments were considered efficacious when the percent efficacy was ≥90% for treated groups compared to untreated control groups.
# The mean sea lice abundance was reported for different parasite life stages (attached, mobile, and total (attached and mobile together)) and computed as the number of lice on salmon divided by the number of sampled fish per tank. […]
# Lepeophtherius salmonis = conditions: 1.0 mg/kg/d in medicated feed to Atlantic salmon for 7 consecutive days; lice counted 10 days after end of treatment; cited from earlier work
# [1] = 0.010 mg/kg/d in feed 7 d, 2 DPT
# [2] = 0.010 mg/kg/d in feed 7 d, 12 DPT
# [3] = 0.010 mg/kg/d in feed 7 d, 16 DPT
# [4] = 0.025 mg/kg/d in feed 7 d, 2 DPT
# [5] = 0.025 mg/kg/d in feed 7 d, 12 DPT
# [6] = 0.025 mg/kg/d in feed 7 d, 16 DPT
# [7] = 0.050 mg/kg/d in feed 7 d, 2 DPT
# [8] = 0.050 mg/kg/d in feed 7 d, 12 DPT
# [9] = 0.050 mg/kg/d in feed 7 d, 16 DPT
# [10] = 0.125 mg/kg/d in feed 7 d, 2 DPT
# [11] = 0.125 mg/kg/d in feed 7 d, 12 DPT
# [12] = 0.125 mg/kg/d in feed 7 d, 16 DPT
compound,measurement,setting,value
"C#CCNC(=O)CNC(=O)c1sc(C2=NO[C@@](c3cc(Cl)c(Cl)c(Cl)c3)(C(F)(F)F)C2)cc1C [S-roxapin, (S)-3-methyl-N-(2-oxo-2-(prop-2-yn-1-ylamino)ethyl)-5-(5-(3,4,5-trichlorophenyl)-5-(trifluoromethyl)-4,5-dihydroisoxazol-3-yl)thiophene-2-carboxamide]",Number of Attached Lice/Fish % Efficacy,Lepeophtheirus salmonis; [1],96.2%
same,Number of Attached Lice/Fish Mean ± SD,Lepeophtheirus salmonis; [1],0.1 ± 0.3 lice/fish
same,Number of Mobile Lice/Fish % Efficacy,Lepeophtheirus salmonis; [1],89.1%
same,Number of Mobile Lice/Fish Mean ± SD,Lepeophtheirus salmonis; [1],1.7 ± 2.2 lice/fish
same,Total Number of Lice/Fish % Efficacy,Lepeophtheirus salmonis; [1],90.3%
same,Total Number of Lice/Fish Mean ± SD,Lepeophtheirus salmonis; [1],1.8 ± 2.4 lice/fish
same,Number of Attached Lice/Fish Mean ± SD,Lepeophtheirus salmonis; [2],0.0 ± 0.0 lice/fish
same,Number of Mobile Lice/Fish % Efficacy,Lepeophtheirus salmonis; [2],94.1%
same,Number of Mobile Lice/Fish Mean ± SD,Lepeophtheirus salmonis; [2],1.1 ± 3.0 lice/fish
same,Total Number of Lice/Fish % Efficacy,Lepeophtheirus salmonis; [2],94.1%
same,Total Number of Lice/Fish Mean ± SD,Lepeophtheirus salmonis; [2],1.1 ± 3.0 lice/fish
same,Number of Attached Lice/Fish Mean ± SD,Lepeophtheirus salmonis; [3],0.0 ± 0.0 lice/fish
same,Number of Mobile Lice/Fish % Efficacy,Lepeophtheirus salmonis; [3],97.7%
same,Number of Mobile Lice/Fish Mean ± SD,Lepeophtheirus salmonis; [3],0.5 ± 0.7 lice/fish
same,Total Number of Lice/Fish % Efficacy,Lepeophtheirus salmonis; [3],97.7%
same,Total Number of Lice/Fish Mean ± SD,Lepeophtheirus salmonis; [3],0.5 ± 0.7 lice/fish
same,Number of Attached Lice/Fish % Efficacy,Lepeophtheirus salmonis; [4],98.5%
same,Number of Attached Lice/Fish Mean ± SD,Lepeophtheirus salmonis; [4],0.1 ± 0.1 lice/fish
same,Number of Mobile Lice/Fish % Efficacy,Lepeophtheirus salmonis; [4],98.8%
same,Number of Mobile Lice/Fish Mean ± SD,Lepeophtheirus salmonis; [4],0.2 ± 0.3 lice/fish
same,Total Number of Lice/Fish % Efficacy,Lepeophtheirus salmonis; [4],98.8%
same,Total Number of Lice/Fish Mean ± SD,Lepeophtheirus salmonis; [4],0.2 ± 0.3 lice/fish
same,Number of Attached Lice/Fish Mean ± SD,Lepeophtheirus salmonis; [5],0.1 ± 0.2 lice/fish
same,Number of Mobile Lice/Fish % Efficacy,Lepeophtheirus salmonis; [5],99.9%
same,Number of Mobile Lice/Fish Mean ± SD,Lepeophtheirus salmonis; [5],0.0 ± 0.1 lice/fish
same,Total Number of Lice/Fish % Efficacy,Lepeophtheirus salmonis; [5],99.5%
same,Total Number of Lice/Fish Mean ± SD,Lepeophtheirus salmonis; [5],0.1 ± 0.2 lice/fish
same,Number of Attached Lice/Fish Mean ± SD,Lepeophtheirus salmonis; [6],0.0 ± 0.0 lice/fish
same,Number of Mobile Lice/Fish % Efficacy,Lepeophtheirus salmonis; [6],99.9%
same,Number of Mobile Lice/Fish Mean ± SD,Lepeophtheirus salmonis; [6],0.0 ± 0.1 lice/fish
same,Total Number of Lice/Fish % Efficacy,Lepeophtheirus salmonis; [6],99.9%
same,Total Number of Lice/Fish Mean ± SD,Lepeophtheirus salmonis; [6],0.0 ± 0.1 lice/fish
same,Number of Attached Lice/Fish % Efficacy,Lepeophtheirus salmonis; [7],92.3%
same,Number of Attached Lice/Fish Mean ± SD,Lepeophtheirus salmonis; [7],0.3 ± 0.3 lice/fish
same,Number of Mobile Lice/Fish % Efficacy,Lepeophtheirus salmonis; [7],99.7%
same,Number of Mobile Lice/Fish Mean ± SD,Lepeophtheirus salmonis; [7],0.1 ± 0.1 lice/fish
same,Total Number of Lice/Fish % Efficacy,Lepeophtheirus salmonis; [7],98.4%
same,Total Number of Lice/Fish Mean ± SD,Lepeophtheirus salmonis; [7],0.3 ± 0.3 lice/fish
same,Number of Attached Lice/Fish Mean ± SD,Lepeophtheirus salmonis; [8],0.0 ± 0.0 lice/fish
same,Number of Mobile Lice/Fish Mean ± SD,Lepeophtheirus salmonis; [8],0.1 ± 0.2 lice/fish
same,Total Number of Lice/Fish % Efficacy,Lepeophtheirus salmonis; [8],99.6%
same,Total Number of Lice/Fish Mean ± SD,Lepeophtheirus salmonis; [8],0.1 ± 0.2 lice/fish
same,Number of Attached Lice/Fish Mean ± SD,Lepeophtheirus salmonis; [9],0.0 ± 0.0 lice/fish
same,Number of Mobile Lice/Fish % Efficacy,Lepeophtheirus salmonis; [9],99.7%
same,Number of Mobile Lice/Fish Mean ± SD,Lepeophtheirus salmonis; [9],0.1 ± 0.2 lice/fish
same,Total Number of Lice/Fish % Efficacy,Lepeophtheirus salmonis; [9],99.7%
same,Total Number of Lice/Fish Mean ± SD,Lepeophtheirus salmonis; [9],0.1 ± 0.2 lice/fish
same,Number of Attached Lice/Fish % Efficacy,Lepeophtheirus salmonis; [10],93.8%
same,Number of Attached Lice/Fish Mean ± SD,Lepeophtheirus salmonis; [10],0.2 ± 0.3 lice/fish
same,Number of Mobile Lice/Fish % Efficacy,Lepeophtheirus salmonis; [10],99.8%
same,Number of Mobile Lice/Fish Mean ± SD,Lepeophtheirus salmonis; [10],0.0 ± 0.1 lice/fish
same,Total Number of Lice/Fish % Efficacy,Lepeophtheirus salmonis; [10],98.8%
same,Total Number of Lice/Fish Mean ± SD,Lepeophtheirus salmonis; [10],0.2 ± 0.4 lice/fish
same,Number of Attached Lice/Fish Mean ± SD,Lepeophtheirus salmonis; [11],0.0 ± 0.1 lice/fish
same,Number of Mobile Lice/Fish % Efficacy,Lepeophtheirus salmonis; [11],100.0%
same,Number of Mobile Lice/Fish Mean ± SD,Lepeophtheirus salmonis; [11],0.0 ± 0.0 lice/fish
same,Total Number of Lice/Fish % Efficacy,Lepeophtheirus salmonis; [11],99.9%
same,Total Number of Lice/Fish Mean ± SD,Lepeophtheirus salmonis; [11],0.0 ± 0.1 lice/fish
same,Number of Attached Lice/Fish Mean ± SD,Lepeophtheirus salmonis; [12],0.1 ± 0.2 lice/fish
same,Number of Mobile Lice/Fish % Efficacy,Lepeophtheirus salmonis; [12],99.9%
same,Number of Mobile Lice/Fish Mean ± SD,Lepeophtheirus salmonis; [12],0.1 ± 0.2 lice/fish
same,Total Number of Lice/Fish % Efficacy,Lepeophtheirus salmonis; [12],99.6%
same,Total Number of Lice/Fish Mean ± SD,Lepeophtheirus salmonis; [12],0.1 ± 0.2 lice/fish
same,efficacy compared with the lowest dosage (0.010 mg/kg/d),"Lepeophtheirus salmonis; dosages of 0.025, 0.050 and 0.125 mg/kg/d in medicated feed over 7 consecutive days",significantly higher efficacy
same,"observed minimum efficacious dosage relative to U.S. Pat. No. 9,920,037 (1.0 mg/kg/d)","Lepeophtheirus salmonis; medicated feed over 7 consecutive days to salmon, provisionally concluded",20-40 times lower
same,efficacy against chalimus and pre-adult/adult stages of the sea louse,Lepeophtherius salmonis,100%
